Converted amounts (≈) assume the structure as drawn. “Also recorded” adds a separate entry of the source. Like-named read-outs stand apart in the source and are kept apart here. Marks after values point to notes of the source that are not given here.
Tests used:
[1] = Saturation solubility in selected solvents/vehicles; format: physicochemical; conditions: for solubility: thermodynamic from solid; for pH of solution in HP-beta-CD 15% / pH of solution in PEG400 30% / pH of solution in Mixed Micelles / pH of solution in Tocrisolve: solubility sample
Description: Saturation Solubility (= Thermodynamic Solubility)
Approximately 8.6 mg test compound per milliliter solvent/vehicle was stirred in HPLC vials (9 × 12 × 32 mm, Waters) at 350 rpm for 15 h. Samples of 10 µL each were taken and microscopically examined for presence of solid particles. If the active pharmacological ingredient (API) dissolved completely, more solid API was added, and stirring was continued for another 15 h. Addition of solid material was repeated up to 96 h or until residual solid particles could be detected. Samples of 0.5 mL were then transferred to Eppendorf Ultrafree filter tubes (Filter: PVDF 0.22 µm) and centrifuged at 14,500 rpm for 10 min. The filtrates were diluted in ethanol and analyzed for content by UPLC. The measurements were also conducted in 0.05 M aqueous phosphate buffer, fasted (FaSSIF), and fed (FeSSIF) simulated gastrointestinal fluid. […]

human CB2R [2] = target: T1, human CB2R (Homo sapiens, UniProt P34972); test: PathHunter β-arrestin recruitment assay, hCB2R; format: cell-based; conditions: for EC50: read-out: hCB2R: beta arrestin EC50
T1 construct: bgal (beta-galactosidase fragment of the PathHunter system, named only in the cell line's name); host or cells: CHO-K1 (CHOK1hCB2_bgal)
T1 sequence (P34972 whole entry, the tested form may be a part): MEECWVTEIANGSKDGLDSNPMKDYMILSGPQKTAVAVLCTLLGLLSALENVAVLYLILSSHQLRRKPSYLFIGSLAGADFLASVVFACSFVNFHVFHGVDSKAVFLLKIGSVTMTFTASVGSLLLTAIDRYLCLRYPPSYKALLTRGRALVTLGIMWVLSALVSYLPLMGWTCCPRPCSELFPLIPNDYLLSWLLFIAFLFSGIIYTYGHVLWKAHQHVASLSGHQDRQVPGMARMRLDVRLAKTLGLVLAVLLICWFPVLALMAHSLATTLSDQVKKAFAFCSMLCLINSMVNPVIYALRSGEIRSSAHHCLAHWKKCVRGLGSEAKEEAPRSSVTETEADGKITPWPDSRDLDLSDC
Description: Assays were carried out using the PathHunter hCB1_bgal, hCB2_bgal, or mCB2_bgal CHOK1 β-arrestin recruitment assay kit (DiscoveRx, Fremont, CA, USA) as previously described. A total of 5000 cells per well were seeded in 384-well plates (Perkin Elmer, MA, USA) containing 20 μL cell culture medium and incubated for 16–18 h at 37 °C and 5% CO2. Cells were stimulated with 10 μM of each agonist or 11 increasing concentrations and incubated for 90 min at 37 °C and 5% CO2. […] The cells were incubated for 90 min at 37 °C and 5% CO2. Compounds in DMSO stock solutions were added using a HP D300 Digital Dispenser (Tecan, Mannedorf, Switzerland). The final concentration of organic solvent per assay point was ≤ 0.1%. The PathHunter Detection mixture was used, according to the manufacturer’s protocol, to determine the β-galactosidase enzyme activity. Detection mixture, 12 μL per well, was added and the plate was incubated for 1 h in the dark at room temperature. Chemiluminescence, indicated as relative light unit, was measured on an EnVision multilabel plate reader (Perkin Elmer, MA, USA).

[3] = test system: leukocyte-endothelial interactions in the iridial microcirculation; test: Endotoxin-induced uveitis (EIU), intravital microscopy of iridial microcirculation, WT mice; format: in vivo, BALB/c mice; conditions: for Rolling leukocytes per min: LPS + topical 1.5% w/v, mean ± SD, n = 6; for adherent leukocytes in the iridial microcirculation: WT mice
Description: EIU was induced in BALB/c mice using an intravitreal injection of LPS (2 μL; 125 ng/μL; E. coli 0111:B4 L084M4118V; Sigma-Aldrich, Oakville, ON, Canada) in saline,. Animals were anesthetized with isoflurane (4% induction, 2% maintenance), and were injected intravitreally through the pars plana with sterile saline (control) or LPS solution using a 30G needle and Hamilton syringe (Hamilton Company, Reno, NV, USA) with the assistance of a WILD M37 dissecting microscope (Leitz Canada, Kitchener, ON, Canada). The puncture wound was glued shut with 3M Vetbond Tissue Adhesive (3M Animal Products, St. Paul, MN, USA), and animals were allowed to recover.
IVM was conducted as previously described in Toguri et al. (2014). The iridial microcirculation was imaged 6 h after induction of EIU. Animals were anesthetized with pentobarbital (i.p., 54 mg/kg). Fifteen minutes before initiating IVM, 0.05% Rhodamine 6G (1.5 mL/kg; Sigma-Aldrich) was injected intravenously (i.v.) to visualize leukocytes within the vasculature, while 5% fluorescein isothiocyanate (FITC) conjugated albumin (i.v., 1 mL/kg; Sigma-Aldrich) was used to visualize blood flow. The iridial microcirculation was observed using an Olympus OV100 Small Animal Imaging System (Olympus, Tokyo, Japan), which contains an MT-20 light source, fluorescence excitation from a xenon lamp (150 W) and an excitation filter for rhodamine-6G (excitation 515–560 nm, emission 590 nm). Images were captured in real-time by a black and white DP70 CCD C-mount camera and digitally recorded using HCImage software (Hamamatsu, Herrsching, Germany).
During IVM animals were placed on a heating pad in a stereotactic frame, and Tear-Gel® (Novartis Pharmaceuticals Canada Inc., Dorval, QC, Canada) was applied to their cornea. The iris was divided into four equal quadrants by drawing two superficial lines on the cornea, lengthwise and widthwise. IVM was carried out in each of these quadrants. Two to four videos of each quadrant were recorded for 30 s each. Videos were analyzed off-line without knowledge of the treatment groups. […] Using ImageJ software (National Institute of Health, Bethesda, MD, USA) the number of adherent leukocytes within each vessel segment was calculated by measuring the diameter and length of vessel segment studied, assuming a cylindrical geometry of blood vessels. Adherent leukocytes were expressed as number of cells per mm^2 of endothelial surface. Rolling leukocytes were classified as cells that moved along the endothelium and crossed a predetermined cross-sectional line of the venule. The number of rolling leukocytes was counted for 30 s and used to calculate the number of rolling leukocytes per min. IVM was conducted 6 h after induction of EIU.
RO6871304, RO6871085, or RO6851228 were applied topically on the left eye (1.5% w/v; 5 μL/animal)) directly after injection of LPS in the same eye. Control animals received vehicle (Tocrisolve) (5 μL/animal) only. HU910 was dissolved for i.v. administration in mixed micelles.

mouse P-gp = conditions: cited from earlier work; for P-glycoprotein-Mediated Efflux Extraction Ratio mouse: mouse P-gp, * previously published; for P-gp substrate, mouse: underlying data previously published
human CB2R [4] = target: T1, human CB2R; conditions: cited from earlier work; for EC50: read-out: hCB2R: beta arrestin EC50
[5] = aqueous with cosolvent or surfactant or cyclodextrin, in demin. water, n = 1, HU308 crystalline material, read-out: Solubility in HP-beta-CD 15%
[6] = aqueous with cosolvent or surfactant or cyclodextrin, in demin. water, n = 1, HU308 crystalline material, read-out: Solubility in PEG400 30%
[7] = aqueous with cosolvent or surfactant or cyclodextrin, n = 1, RO6871085 as hydrochloride salt, HU308 crystalline material, > = saturation not achieved, read-out: Solubility in Tocrisolve
[8] = oil or lipid, n = 1, RO6871085 as hydrochloride salt, HU308 crystalline material, > = saturation not achieved, read-out: Solubility in MCT (Miglyol 812)
[9] = pH 6, aqueous with cosolvent or surfactant or cyclodextrin, 200 mM glycocholic acid, 200 mM lecithin in water for injection, pH 6, n = 1, RO6871085 as hydrochloride salt, read-out: Solubility in Mixed Micelles
[10] = RO6871085 as hydrochloride salt
[11] = topical 1.5% w/v (5 µL/animal), 6 h after intravitreal LPS, vs LPS + vehicle
[12] = underlying data previously published

| SMILES | solubility in Tocrisolve 100 [1] | solubility [1, 5] [µg/mL] | solubility [1, 6] [µg/mL] | solubility [1, 7] [µg/mL] | solubility [1, 8] [µg/mL] | solubility [1, 9] [µg/mL] | pH of solution in HP-beta-CD 15% [1] | pH of solution in PEG400 30% [1] | pH of solution in Mixed Micelles [1, 10] | pH of solution in Tocrisolve [1, 10] | functional behaviour in hCB2R β-arrestin assay (human CB2R [2]) | hCB2R: beta arrestin efficacy (human CB2R [2]) [%] | EC50 (human CB2R [2]) [µM] | Rolling leukocytes per min ([3]; 6 h after intravitreal LPS) [per min] | adherent leukocytes in the iridial microcirculation [3, 11] | P-glycoprotein-Mediated Efflux Extraction Ratio mouse (mouse P-gp) | P-gp substrate, mouse (mouse P-gp) | hCB1R beta arrestin EC50/hCB2R beta arrestin EC50 (human CB2R [2]) | hCB2R: beta arrestin efficacy (human CB2R [4]; * previously published) [%] | functional behaviour in hCB2R β-arrestin assay (human CB2R [4]; [12]) | other results |
| --- | --- | --- | --- | --- | --- | --- | --- | --- | --- | --- | --- | --- | --- | --- | --- | --- | --- | --- | --- | --- | --- |
| CNC(=O)[C@@H](NC(=O)c1cc(OCC2(C)COC2)c(C2CC2)cn1)C(C)(C)C [RO6851228, 5-Cyclopropyl-N-[(2S)-3,3-dimethyl-1-(methylamino)-1-oxobutan-2-yl]-4-[(3-methyloxetan-3-yl)methoxy]pyridine-2-carboxamide] | good solvent | 35500 (≈ 91.1 mM) | 5900 (≈ 15.1 mM) | 15000 | > 19000 | > 1600 | 7.6 | 7.4 | 6.6 | 7.3 | inverse agonist | −18 | 0.003 | 0.45 ± 0.47 | increased leukocyte-adhesion; also recorded: increases leukocyte adhesion | 25.1 | strong P-gp substrate | – | – | – | – |
| Cc1nc([C@](C)(CC2CC2)NC(=O)c2cc(OCC(F)(F)F)c(C3CC3)cn2)no1 [RO6871085, 5-Cyclopropyl-N-[(2S)-1-cyclopropyl-2-(5-methyl-1,2,4-oxadiazol-3-yl)propan-2-yl]-4-(2,2,2-trifluoroethoxy)pyridine-2-carboxamide] | good solvent | – | – | > 30000 | 2300 | 200 | – | – | 6.1 | 1.2 | partial agonist | 51 | 0.055 | – | significantly attenuated | 1.7 | not a P-gp substrate | >545 | – | – | – |
| CCCCCCC(C)(C)c1cc(OC)c([C@H]2C=C(CO)[C@H]3C[C@@H]2C3(C)C)c(OC)c1 [HU308, {(1S,4S,5S)-4-[2,6-Dimethoxy-4-(2-methyloctan-2-yl)phenyl]-6,6-dimethylbicyclo[3.1.1]hept-2-en-2-yl}methanol, reference compound] | considerably lower | 20 (≈ 0.0482 mM) | – | 1600 | > 10300 | – | 5.7 | 5.1 | – | 6.1 | – | – | – | – | – | – | – | – | 107 | full agonist | – |
| CC(C)(C)c1nc(N2CC[C@H](O)C2)c2nnn(Cc3nnnn3C3CC3)c2n1 [RO6871304, (3S)-1-{5-tert-butyl-3-[(1-cyclopropyl-1H-tetrazol-5-yl)methyl]-3H-[1,2, 3]triazolo[4,5-d]pyrimidin-7-yl}pyrrolidin-3-ol] | considerably lower | 7200 (≈ 18.7 mM) | 200 (≈ 0.52 mM) | 1300 | 2300 | > 1800 | 6.0 | 6.1 | 6.6 | 5.7 | – | – | – | 0.05 ± 0.07 | significantly attenuated; also recorded: most efficacious | – | – | >1429 | 119 | full agonist | EC50 (human CB2R [4]; * previously published): 0.021 µM |
| CCCCCCC(C)(C)c1cc(OC)c(C2=C[C@H]3CC[C@]2(CO)C3(C)C)c(OC)c1 [HU910, {(1S,4R)-2-[2,6-dimethoxy-4-(2-methyloctan-2-yl)phenyl]-7,7-dimethylbicyclo[2.2.1]hept-2-en-1-yl}methanol, reference compound] | good solvent | 320 (≈ 0.772 mM) | – | 19200 | > 87800 | 4400 | 6.2 | 6.0 | 6.2 | 6.2 | – | – | – | – | significantly attenuated | 3.0 | – | >275 | – | – | time of stirring to full dissolution in Tocrisolve 100 ([1]; data not shown): approximately 72 h; Solubility in PEG400 30% ([1]; in demin. water, n = 1, HU308 crystalline material): < LOD; adherent leukocytes in the iridial microcirculation ([3]; 3.0 mg/kg i.v. in mixed micelles, 6 h after LPS, vs LPS + vehicle (p < 0.01)): significantly reduced leukocyte adhesion; functional behaviour in hCB2R β-arrestin assay (human CB2R [4]): full agonist; hCB2R: beta arrestin efficacy (human CB2R [4]): 109, 81 * %; EC50 (human CB2R [4]): 0.109 µM |

— publication PMC6767236, “Selective Cannabinoid 2 Receptor Agonists as Potential Therapeutic Drugs for the Treatment of Endotoxin-Induced Uveitis” (Molecules, 2019)
